Assay results from US20110070215A1 (priority 2009, published 2011).

Tested on: DU-145 cells
Assay type: cell-based, human

Question: Which “Relative Wound Density at 24 Hours, Mean” value does the source give for C=C1[C@@H](C)[C@H]2[C@H](Cc3ccccc3)NC(=O)[C@]23[C@H](OC(C)=O)/C=C/[C@@](C)(O)C(=O)[C@@H](C)C/C=C/[C@H]3[C@@H]1O [Cytochalasin-D] here?
Answer: 3.3 ± 0.2

Question: What about the “Relative Wound Density at 24 Hours, Percent Relative to Media” value of the same molecule?
Answer: 4%

Question: What about the “effect on cell migration” value of the same molecule?
Answer: did not migrate
